Measurements: patent US20170226139A1, “CRYSTALLINE SALTS OF (Z)-O-OCTADEC-9-EN-1-YL O,O-DIHYDROGEN PHOSPHOROTHIOATE” (priority 2013, published 2017)
Like-named read-outs stand apart in the source and are kept apart here.

Test system: S. typhimurium strains TA98, TA100, TA1535 and TA1537 and E. coli strain WP2uvrA
Format: cell-based
Method: An Ames assay was conducted on Rx100.Lysine using S. typhimurium strains TA98, TA100, TA1535 and TA1537 and E. coli strain WP2uvrA. Two trials were performed. […] See Tables 38A and 38B, respectively. In the second trial, doses ranged from 0.160 to 16 μg/plate with some strains tested with activation and others without activation.

## COc1ccc2nc3cc(Cl)ccc3c(NCCCNCCCl)c2c1 [ICR-191]
Without Metabolic Activation, TA1537, positive control 2.0 μg/plate
  Revertant Colony Counts (Mean ± SD): 562 ± 33 ^N

## O=[N+]([O-])c1ccc2c(c1)Cc1ccccc1-2 [2-nitrofluorene]
Without Metabolic Activation, TA98, positive control 1.0 μg/plate
  Revertant Colony Counts (Mean ± SD): 329 ± 65 ^N

## [N-]=[N+]=[N-] [sodium azide]
Without Metabolic Activation, TA100, positive control 2.0 μg/plate
  Revertant Colony Counts (Mean ± SD): 969 ± 137 ^N
Without Metabolic Activation, TA1535, positive control 2.0 μg/plate
  Revertant Colony Counts (Mean ± SD): 863 ± 45 ^N

## Nc1ccc2cc3ccccc3cc2c1 [2-aminoanthracene]
TA100, with metabolic activation, positive control 2.5 μg/plate
  Revertant Colony Counts (Mean ± SD): 2106 ± 68 ^N
TA1535, with metabolic activation, positive control 2.5 μg/plate
  Revertant Colony Counts (Mean ± SD): 205 ± 11 ^N
TA1537, with metabolic activation, positive control 2.5 μg/plate
  Revertant Colony Counts (Mean ± SD): 176 ± 19 ^N C
WP2uvrA, with metabolic activation, positive control 25.0 μg/plate
  Revertant Colony Counts (Mean ± SD): 634 ± 14 ^N
